Reference: patent US6114334A, “Piperazine derivatives as therapeutic agents” (Knoll Aktiengesellschaft, priority 1995, dated 2000)

Key:
5-HT1A receptors = target: T1, 5-HT1A receptors (Rattus norvegicus, UniProt P19327); test: inhibition of [3H]8-OH-DPAT binding to 5-HT1A receptors in vitro; set-up: species or system rat (male Sprague-Dawley, hippocampal tissue); details: rat hippocampus, [3H]8-OH-DPAT 2 nM, 25° C., 30 min
T1 sequence (P19327 1-422): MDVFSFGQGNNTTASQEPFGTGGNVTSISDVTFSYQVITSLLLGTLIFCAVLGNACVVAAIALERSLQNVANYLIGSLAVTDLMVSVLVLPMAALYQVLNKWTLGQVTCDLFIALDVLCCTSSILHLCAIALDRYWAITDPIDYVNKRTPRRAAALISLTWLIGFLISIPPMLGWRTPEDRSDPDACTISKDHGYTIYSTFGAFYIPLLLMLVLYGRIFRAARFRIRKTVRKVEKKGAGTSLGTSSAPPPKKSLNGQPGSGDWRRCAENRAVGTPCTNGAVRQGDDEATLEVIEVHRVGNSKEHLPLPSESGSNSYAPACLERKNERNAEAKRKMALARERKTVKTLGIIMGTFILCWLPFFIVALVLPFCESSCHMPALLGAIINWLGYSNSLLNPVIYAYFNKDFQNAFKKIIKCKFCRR

α2A-adrenoceptors = target: T2, α2A-adrenoceptors (Homo sapiens, UniProt P08913); test: inhibition of tritiated RX 821002 binding to α2A-adrenoceptors in vitro; set-up: species or system human (cerebral cortex post-mortem); details: 10^-6 M, human cerebral cortex, [3H]RX 821002; read-out: % displacement at 10^-6 M, α2A
T2 construct: Human cerebral cortex obtained at post-mortem; from tissue; host or cells: human cerebral cortex, post-mortem
T2 sequence (P08913 1-465): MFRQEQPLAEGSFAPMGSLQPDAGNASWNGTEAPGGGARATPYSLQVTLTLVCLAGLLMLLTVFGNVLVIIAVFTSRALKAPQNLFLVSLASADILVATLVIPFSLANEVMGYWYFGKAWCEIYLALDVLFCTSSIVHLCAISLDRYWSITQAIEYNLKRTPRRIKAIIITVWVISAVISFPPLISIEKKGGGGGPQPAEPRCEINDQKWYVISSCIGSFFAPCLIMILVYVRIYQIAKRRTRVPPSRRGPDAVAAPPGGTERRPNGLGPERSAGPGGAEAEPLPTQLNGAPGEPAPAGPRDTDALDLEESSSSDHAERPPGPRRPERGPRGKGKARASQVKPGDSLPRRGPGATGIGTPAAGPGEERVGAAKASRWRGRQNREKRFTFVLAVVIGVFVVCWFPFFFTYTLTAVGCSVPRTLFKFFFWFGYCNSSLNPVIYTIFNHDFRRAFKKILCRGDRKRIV
How it was run: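 Post-mortem human cerebral cortex membranes (10 mg wet tissue/tube; 50 mM Tris-HCl pH 7.5, ascorbate, EDTA) incubated 75 min at 0 °C with [3H]RX 821002 (0.2 nM as added) and compound; filtration, scintillation counting. Compounds displacing ≥50% at 10^-6 M tested at 10^-11–10^-3 M; IC50 converted to Ki.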

α2D-adrenoceptors = target: T3, α2D-adrenoceptors (Rattus norvegicus, UniProt P22909); test: inhibition of tritiated idazoxan binding to α2D-adrenoceptors in vitro; set-up: species or system rat (male Charles River CD, frontal cortical tissue); details: rat frontal cortex; for Ki: [3H]idazoxan 1 nM, 0° C., 75 min
T3 sequence (P22909 1-465): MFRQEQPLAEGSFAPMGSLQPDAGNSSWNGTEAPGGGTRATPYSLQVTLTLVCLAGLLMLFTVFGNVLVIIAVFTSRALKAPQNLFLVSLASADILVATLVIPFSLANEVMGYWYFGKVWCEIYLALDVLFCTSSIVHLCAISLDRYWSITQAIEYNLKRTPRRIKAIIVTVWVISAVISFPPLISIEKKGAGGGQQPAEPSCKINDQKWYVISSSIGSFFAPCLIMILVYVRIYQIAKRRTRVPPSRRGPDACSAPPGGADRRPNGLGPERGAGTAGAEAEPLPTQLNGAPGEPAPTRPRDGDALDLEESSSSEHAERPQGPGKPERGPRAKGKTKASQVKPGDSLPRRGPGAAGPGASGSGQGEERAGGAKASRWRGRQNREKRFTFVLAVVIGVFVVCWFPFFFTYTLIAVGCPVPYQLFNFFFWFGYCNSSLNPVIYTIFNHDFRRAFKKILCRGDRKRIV

α1-adrenoceptors = test: inhibition of 7-methoxy-[3H]prazosin binding to α1-adrenoceptors in vitro; set-up: species or system rat (male Charles River CD, whole cortical tissue); details: rat whole cortex, 7-methoxy-[3H]prazosin 0.1 nM, 30° C., 30 min
How it was run: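 Male CD rat cortical membranes in 50 mM Tris-HCl pH 7.6 were incubated 30 min at 30 °C with 7-methoxy-[3H]prazosin (0.1 nM as added), with 5 μM phentolamine (as added) defining non-specific binding, then filtered and counted. Compounds were tested at 10^-6 M for % displacement or at 10^-11–10^-3 M for IC50, and Ki was derived from IC50, ligand concentration and KD.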

D2 dopamine receptors = D2 dopamine receptors (Rattus norvegicus, UniProt P61169); test: inhibition of tritiated (S)-sulpiride binding to D2 dopamine receptors in vitro; set-up: species or system rat (male Charles River CD, striatal tissue); details: rat striatum, tritiated (S)-sulpiride 1 nM, 4° C., 40 min
Sequence of D2 dopamine receptors (P61169 whole entry): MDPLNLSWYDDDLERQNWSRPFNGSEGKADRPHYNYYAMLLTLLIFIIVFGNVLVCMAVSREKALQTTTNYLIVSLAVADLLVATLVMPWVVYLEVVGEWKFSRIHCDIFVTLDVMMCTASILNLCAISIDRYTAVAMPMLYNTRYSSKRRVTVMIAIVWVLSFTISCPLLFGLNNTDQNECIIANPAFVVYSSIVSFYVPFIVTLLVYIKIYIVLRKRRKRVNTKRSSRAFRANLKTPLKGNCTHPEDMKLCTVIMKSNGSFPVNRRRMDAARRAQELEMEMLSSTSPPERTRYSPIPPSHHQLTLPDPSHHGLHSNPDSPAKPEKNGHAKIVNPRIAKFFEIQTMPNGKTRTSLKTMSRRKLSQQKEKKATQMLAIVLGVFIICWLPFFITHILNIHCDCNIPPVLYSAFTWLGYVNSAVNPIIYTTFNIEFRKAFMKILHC

Compound: CC1(CN2CCN(c3cccc(C(F)(F)F)c3)CC2)N=C(c2ccccc2)NC1=O (centres unmarked) [Example 41, 4-Methyl-2-phenyl-4-{4-[3-(trifluoromethyl)phenyl]piperazin-1-ylmethyl}-2-imidazolin-5-one]
- Ki (5-HT1A receptors): 224 nM
- inhibition at 1 µM (α2A-adrenoceptors): 57%
- Ki (α2D-adrenoceptors): > 500 nM
- Ki (α1-adrenoceptors): > 500 nM
- Ki (D2 dopamine receptors): 129 nM

Compound: CC1(CN2CCN(c3cccc(Cl)c3)CC2)N=C(c2ccccc2)NC1=O (centres unmarked) [Example 42, 4-[4-(3-Chlorophenyl)piperazin-1-ylmethyl]-4-methyl-2-phenyl-2-imidazolin-5-one]
- Ki (5-HT1A receptors): 213 nM
- inhibition at 1 µM (α2A-adrenoceptors): 84%
- Ki (α2D-adrenoceptors): 226 nM
- Ki (α1-adrenoceptors): > 500 nM
- Ki (D2 dopamine receptors): > 500 nM

Compound: Cc1ccccc1N1CCN(CC2(C)N=C(c3ccccc3)NC2=O)CC1 (centres unmarked) [Example 43, 4-Methyl-4-[4-(2-methylphenyl)piperazin-1-ylmethyl]-2-phenyl-2-imidazolin-5-one]
- Ki (5-HT1A receptors): 276 nM
- inhibition at 1 µM (α2A-adrenoceptors): 93%
- Ki (α2D-adrenoceptors): 33 nM
- Ki (α1-adrenoceptors): > 500 nM
- Ki (D2 dopamine receptors): > 500 nM

Compound: C=CCN1C(=O)C(C)(CN2CCN(c3cccc4c3OCCO4)CC2)N=C1c1cccnc1 (centres unmarked) [Example 44, 1-allyl-4-[4-(1,4-benzodioxan-5-yl)piperazin-1-ylmethyl]-4-methyl-2-(3-pyridyl)-2-imidazolin-5-one]
- Ki (5-HT1A receptors): 15 nM
- inhibition at 1 µM (α2A-adrenoceptors): 76%
- inhibition at 1 µM (α2D-adrenoceptors; 10^-6 M, [3H]idazoxan, read-out: % displacement at 10^-6 M, α2D): 54%
- Ki (α1-adrenoceptors): > 500 nM
- Ki (D2 dopamine receptors): 345 nM
